# Results published in US12295997B2, “Prostate neoantigens and their uses” (Janssen Biotech, Inc., priority 2020, dated 2025).
# Test system: CD8+ and CD4+ T cells (autologous CD3+ Pan-T cells isolated from human normal PBMCs)
# Assay: Exogenous autologous normal donor restimulation assay (15-mer overlapping peptide pools on CD1c+ dendritic cells, TNFα/IFNγ flow cytometry)
# Format: cell-based
# Conditions: 15-mer overlapping peptide pool; for Maximum Fold Change Over Background CD4+ cells / Maximum Fold Change Over Background CD8+ cells / Maximum Frequency of TNFα/IFNγ Double Positive CD4+ T cells / Maximum Frequency of TNFα/IFNγ Double Positive CD8+ T cells: Table 25; for Maximum Fold Change Over Background CD4+ cells: TNFα+IFNγ+ CD4+ T cells; for Maximum Fold Change Over Background CD4+ cells / Maximum Fold Change Over Background CD8+ cells: highest fold change over negative control across normal donors; for Maximum Fold Change Over Background CD8+ cells: TNFα+IFNγ+ CD8+ T cells; for Maximum Frequency of TNFα/IFNγ Double Positive CD4+ T cells / Maximum Frequency of TNFα/IFNγ Double Positive CD8+ T cells: highest frequency across normal donors; for Max. Fold Change over background CD4+ TNFαINFγ double positive DP / Max. Fold Change over background CD8+ TNFαINFγ double positive DP / Max. Frequency of CD4+ TNFαINFγ DP / Max. Frequency of CD8+ TNFαINFγ DP: Table 28, additional neoantigens, highest across normal donors
# Procedure: CD1c+ Dendritic Cells (DC) isolated from human normal PBMCs were thawed using media (IMDM (Gibco) supplemented with glutamine, HEPES, 5% human serum (Sigma), and 1× Pen-Strep). DC cells were resuspended in media supplemented with IL-4 (Peprotech, 80 ng/mL) and GM-CSF (Gibco, 80 ng/mL), plated in 6 well microplates, and rested overnight at 37° C. (5% CO2). The following day, DC cells were counted and plated in a 96 well round bottom microplate at a concentration of 30,000 viable cells per well. Lyophilized peptides (15-mer overlapping peptides) were solubilized in 100% DMSO and pooled by neoantigen to between 5 mg/mL and 20 mg/mL. Neoantigen peptides pools were added to DCs for a final concentration of […] and rested for 2 hours at 37° C. (5% CO2). CEF Peptide Pool “Plus” (Cellular Technologies, Ltd.) was utilized as a positive control and DMSO at the same final concentration as the experimental peptides was utilized as a negative control. After 2 hours, DC cells were irradiated with 50 gray of ionizing radiation. Autologous CD3+ Pan-T cells isolated from human normal PBMCs were thawed using media. Following irradiation, autologous Pan-T cells were added to the irradiated DCs at 300,000 viable cells per well. Human IL-15 (Peprotech) was added to all wells at final concentration of 10 ng/mL.
# Plates were incubated at 37° C. (5% CO2) for a total of 12 days. Media was refreshed every 2-3 days with IL-15 (10 ng/mL final concentration) and IL-2 (R&D systems, 10 IU/mL final concentration). On day 11 cells were re-stimulated with identical experimental peptide pools or controls, at same concentration as peptide stimulation on Day 1. Protein Inhibitor Cocktail (eBioscience) was added to every well and plate was incubated overnight at 37° C. (5% CO2).
# On day 12, cells were stained for intracellular flow cytometry analysis. The cells were washed with PBS and stained with Live/Dead Fixable Aqua Dead Cell stain (Thermo-Fisher). Following the live/dead stain, cells were blocked using Biotin-Free Fc Receptor Blocker (Accurate Chemical & Scientific Corp). Extracellular cellular flow panel (1 μL/antibody per well in 50 μL) consisted of CD3 PerCP-Cy5.5 (Biolegend), CD4 BV421 (Biolegend), and CD8 APC-Cy7 (Biolegend). After extracellular staining, cells were fixed using Foxp3/fTranscription Factor Staining Buffer Set (eBioscience) and stained for intracellular proteins (1:50 dilution) using TNFα FITC (R&D Systems) and IFNγ BV785 (Biolegend). Cells were washed and resuspended in stain buffer and analyzed using a BD Celesta flow cytometer.
# Flow cytometry cell staining analysis was completed using FlowJo v10. Cells were gated on live, singlet, CD3+ cells. The CD8+ and CD4+ T cells were analyzed for TNFα/IFNγ expression and the frequency of double positive TNFα/IFNγ CD8+ and the frequency of double positive TNFα/IFNγ CD4+ T cells were recorded. Responses were assessed to be positive when the frequency of double positive TNFα/IFNγ CD8+ or TNFα/IFNγ CD4+ T cells due to stimulation with an experimental peptide pool was increased greater than or equal to 3-fold over the DMSO only negative control for that donor and at least 0.01%.
# (§1) Overlapping 15-mer peptides were designed to span each neoantigen incorporated into NeoGAd20 and NeoMVA to assess their ability to activate T cells using the exogenous autologous normal donor restimulation assay described in Example 1 as pools using TNFα and IFNγ production by CD8^+ and CD4^+ T cells as a readout.
# as §1, with “Immunogenicity of various additional identified neoantigens was assessed. Overlapping” for “Overlapping”, “similarly to what was done in Example 11” for “incorporated into NeoGAd20 and NeoMVA”
substance,measurement,value
"HVVGYGHLDTSGSSSSSSWP (listed as Homo sapiens) [FUS15, D2HGDH->GAL3ST2 gene fusion]",Maximum Fold Change Over Background CD4+ cells,2.79
same,Maximum Fold Change Over Background CD8+ cells,1.75
same,Maximum Frequency of TNFα/IFNγ Double Positive CD4+ T cells,0.039
same,Maximum Frequency of TNFα/IFNγ Double Positive CD8+ T cells,0.028
"IARELHQFAFDLLIKSH (listed as Homo sapiens) [Neoantigen M84, AR T878A]",Maximum Fold Change Over Background CD4+ cells,35.84
same,Maximum Fold Change Over Background CD8+ cells,1.39
same,Maximum Frequency of TNFα/IFNγ Double Positive CD4+ T cells,0.31
same,Maximum Frequency of TNFα/IFNγ Double Positive CD8+ T cells,0.03
"IIDSDKIMAVCMGCLLTRHVQCQAMEMQQ (listed as Homo sapiens) [AS54, ABCC4 alternative splicing]",Max. Fold Change over background CD4+ TNFαINFγ double positive DP,17.87
same,Max. Fold Change over background CD8+ TNFαINFγ double positive DP,88.15
same,Max. Frequency of CD4+ TNFαINFγ DP,0.18
same,Max. Frequency of CD8+ TNFαINFγ DP,8.33
"KENDVREVCDVYLQMQIFFHFKFRSYFH (listed as Homo sapiens) [AS10, CHRNA5 alternative splicing]",Max. Fold Change over background CD4+ TNFαINFγ double positive DP,3.97
same,Max. Fold Change over background CD8+ TNFαINFγ double positive DP,4.33
same,Max. Frequency of CD4+ TNFαINFγ DP,0.23
same,Max. Frequency of CD8+ TNFαINFγ DP,0.08
"KEQILAVASLVSSQSIHPSWGQSPLSRI (listed as Homo sapiens) [FUS9, AP5S1->MAVS gene fusion]",Max. Fold Change over background CD4+ TNFαINFγ double positive DP,203.97
same,Max. Fold Change over background CD8+ TNFαINFγ double positive DP,1.82
same,Max. Frequency of CD4+ TNFαINFγ DP,0.77
same,Max. Frequency of CD8+ TNFαINFγ DP,0.07
"KIQNKNCPD (listed as Homo sapiens) [AS23, ZNF614 alternative splicing]",Maximum Fold Change Over Background CD4+ cells,5.08
same,Maximum Fold Change Over Background CD8+ cells,3.24
same,Maximum Frequency of TNFα/IFNγ Double Positive CD4+ T cells,0.01
same,Maximum Frequency of TNFα/IFNγ Double Positive CD8+ T cells,0.07
"KMHFSLKEHPPPPCPP (listed as Homo sapiens) [FUS19, GTF2F1->PSPN gene fusion]",Maximum Fold Change Over Background CD4+ cells,3.15
same,Maximum Fold Change Over Background CD8+ cells,1.88
same,Maximum Frequency of TNFα/IFNγ Double Positive CD4+ T cells,0.013
same,Maximum Frequency of TNFα/IFNγ Double Positive CD8+ T cells,0.030
"KRSFAVTERII (listed as Homo sapiens) [AS13, GRIN3A alternative splicing]",Maximum Fold Change Over Background CD4+ cells,1.96
same,Maximum Fold Change Over Background CD8+ cells,1.67
same,Maximum Frequency of TNFα/IFNγ Double Positive CD4+ T cells,0.05
same,Maximum Frequency of TNFα/IFNγ Double Positive CD8+ T cells,0.10
"KVLNEIDAVVTVPPSLSTSQIPQGCCIIL (listed as Homo sapiens) [AS20, PFKFB4 alternative splicing]",Max. Fold Change over background CD4+ TNFαINFγ double positive DP,1.36
same,Max. Fold Change over background CD8+ TNFαINFγ double positive DP,3.81
same,Max. Frequency of CD4+ TNFαINFγ DP,0.05
same,Max. Frequency of CD8+ TNFαINFγ DP,0.12
"KWNKNWTATLGALTIRGHKLLCHLPHLLSSVQQTCRSSSR (listed as Homo sapiens) [AS46, SERINC5 alternative splicing]",Max. Fold Change over background CD4+ TNFαINFγ double positive DP,157.98
same,Max. Fold Change over background CD8+ TNFαINFγ double positive DP,11.6
same,Max. Frequency of CD4+ TNFαINFγ DP,0.29
same,Max. Frequency of CD8+ TNFαINFγ DP,0.87
"LELELSEGVCFRLR (listed as Homo sapiens) [FUS10, DIP2A->DIP2A-IT1 gene fusion]",Max. Fold Change over background CD4+ TNFαINFγ double positive DP,10.86
same,Max. Fold Change over background CD8+ TNFαINFγ double positive DP,2.42
same,Max. Frequency of CD4+ TNFαINFγ DP,0.04
same,Max. Frequency of CD8+ TNFαINFγ DP,0.09
"LQERMELLACGAERGAGGWGGGGGGGGGDRRGGGGSAPALADFAGGRG (listed as Homo sapiens) [FUS24, DMPK->SIX5 gene fusion]",Max. Fold Change over background CD4+ TNFαINFγ double positive DP,4.4
same,Max. Fold Change over background CD8+ TNFαINFγ double positive DP,8.53
same,Max. Frequency of CD4+ TNFαINFγ DP,0.05
same,Max. Frequency of CD8+ TNFαINFγ DP,0.64
"LTFLDFIQVTLRVMSGSQMENGSSYFFKPFSWGLGVGLSAWLCVMLT (listed as Homo sapiens) [AS1, ABCC4 alternative splicing]",Max. Fold Change over background CD4+ TNFαINFγ double positive DP,3.57
same,Max. Fold Change over background CD8+ TNFαINFγ double positive DP,8.15
same,Max. Frequency of CD4+ TNFαINFγ DP,0.02
same,Max. Frequency of CD8+ TNFαINFγ DP,0.11
"LVLGVLSGHSGSRL (listed as Homo sapiens) [AS8, CACNA1D alternative splicing]",Maximum Fold Change Over Background CD4+ cells,4.08
same,Maximum Fold Change Over Background CD8+ cells,54.55
same,Maximum Frequency of TNFα/IFNγ Double Positive CD4+ T cells,0.049
same,Maximum Frequency of TNFα/IFNγ Double Positive CD8+ T cells,0.600
"MFLRKEQQVGPHSFSML (listed as Homo sapiens) [AS14, IQCG alternative splicing]",Max. Fold Change over background CD4+ TNFαINFγ double positive DP,1.49
same,Max. Fold Change over background CD8+ TNFαINFγ double positive DP,3.81
same,Max. Frequency of CD4+ TNFαINFγ DP,0.06
same,Max. Frequency of CD8+ TNFαINFγ DP,0.12
MS2 (TDIVKQSV; listed as Homo sapiens),Max. Fold Change over background CD4+ TNFαINFγ double positive DP,15.12
same,Max. Fold Change over background CD8+ TNFαINFγ double positive DP,36.92
same,Max. Frequency of CD4+ TNFαINFγ DP,0.1
same,Max. Frequency of CD8+ TNFαINFγ DP,0.48
MS4 (SYFSLTNIFNFV; listed as Homo sapiens),Max. Fold Change over background CD4+ TNFαINFγ double positive DP,367.35
same,Max. Fold Change over background CD8+ TNFαINFγ double positive DP,24.13
same,Max. Frequency of CD4+ TNFαINFγ DP,2.43
same,Max. Frequency of CD8+ TNFαINFγ DP,0.76
MS5 (EFSPETCAFRLS; listed as Homo sapiens),Max. Fold Change over background CD4+ TNFαINFγ double positive DP,126.05
same,Max. Fold Change over background CD8+ TNFαINFγ double positive DP,32.89
same,Max. Frequency of CD4+ TNFαINFγ DP,0.2
same,Max. Frequency of CD8+ TNFαINFγ DP,1.95
MS7 (KKDLELIL; listed as Homo sapiens),Max. Fold Change over background CD4+ TNFαINFγ double positive DP,10.52
same,Max. Fold Change over background CD8+ TNFαINFγ double positive DP,6.67
same,Max. Frequency of CD4+ TNFαINFγ DP,0.09
same,Max. Frequency of CD8+ TNFαINFγ DP,0.12
MS9 (SALSGNSWV; listed as Homo sapiens),Max. Fold Change over background CD4+ TNFαINFγ double positive DP,455.63
same,Max. Fold Change over background CD8+ TNFαINFγ double positive DP,1.38
same,Max. Frequency of CD4+ TNFαINFγ DP,1.72
same,Max. Frequency of CD8+ TNFαINFγ DP,0.1
MS10 (TVRAILL; listed as Homo sapiens),Max. Fold Change over background CD4+ TNFαINFγ double positive DP,74.17
same,Max. Fold Change over background CD8+ TNFαINFγ double positive DP,3.42
same,Max. Frequency of CD4+ TNFαINFγ DP,0.28
same,Max. Frequency of CD8+ TNFαINFγ DP,0.13
MS11 (GSLHFHEVLK; listed as Homo sapiens),Max. Fold Change over background CD4+ TNFαINFγ double positive DP,3.4
same,Max. Fold Change over background CD8+ TNFαINFγ double positive DP,3.81
same,Max. Frequency of CD4+ TNFαINFγ DP,0.13
same,Max. Frequency of CD8+ TNFαINFγ DP,0.12
"NSKMALNSEALSVVSE (listed as Homo sapiens) [FUS5, TMPRSS2->ERG gene fusion]",Maximum Fold Change Over Background CD4+ cells,3.43
same,Maximum Fold Change Over Background CD8+ cells,32.50
same,Maximum Frequency of TNFα/IFNγ Double Positive CD4+ T cells,0.048
same,Maximum Frequency of TNFα/IFNγ Double Positive CD8+ T cells,0.390
P27 (LHPQRETFTPRWSGANYWKLAFPVGAEGTFPAAATQRGVVRPA; listed as Homo sapiens) [Neoantigen P27],Max. Fold Change over background CD4+ TNFαINFγ double positive DP,45.38
same,Max. Fold Change over background CD8+ TNFαINFγ double positive DP,7.87
same,Max. Frequency of CD4+ TNFαINFγ DP,0.05
same,Max. Frequency of CD8+ TNFαINFγ DP,0.59
